Assay results taken from patent publication US10857136B2, “Compounds for use in the prevention and/or treatment of non-alcoholic fat liver disease and non-alcoholic steatohepatitis” (SJT MOLECULAR RESEARCH, SL, priority 2017, dated 2020).

Tests used:
Type in all cases: in vivo
[1] = tested on: DIO-NASH mice (C57Bl/6J male mice); test: Triglycerides and cholesterol liver content, 8 weeks assay in DIO-NASH mice; conditions: 50 mg/kg, p.o., b.i.d., vs DIO-NASH vehicle
Source text: The DIO-NASH mouse model is fed a high fat diet that results on non-alcoholic fat liver disease and are based on C57Bl/6J mice put on a 40% high fat diet prior to the assays. For the assessment of effect of the compounds of the invention in liver lipid content in non-alcoholic fat liver disease, 34 C57Bl/6J male mice (5-week-old at delivery), obtained from Janvier, France, were used. The DIO-NASH mice group were put on high fat diet (40% AMLN diet, D09100301 Research Diets, USA) and a control group (LEAN-CHOW) was put on a regular chow diet (Altromin 1324, Brogaarden, Denmark) for 35 weeks prior to the study.
To assess the effect of compound 4a on hepatic triglyceride or cholesterol content in animals with non-alcoholic fat liver disease, DIO-NASH mice (C57Bl/6J male mice) were treated with a hydrochloride salt of compound 4a during 8 weeks (50 mg/kg, p.o., b.i.d.), versus a pathological control of DIO-NASH mice and a non-pathological control LEAN-CHOW mice, both treated with the vehicle (0.9% NaCl). […]
The triglyceride content in liver was determined using the Triglyceride reagent (Cat. no. 22-045-795, Roche Diagnostics, Germany) on a Cobas™ C-501 autoanalyzer. Homogenized liver tissue was heated to 80-100° C. twice, centrifuged in a microcentrifuge and the triglyceride content was measured in the supernatant.

[2] = tested on: DIO-NASH mice (C57Bl/6J male mice); test: Liver toxicity: plasma ALT and AST, 8 weeks assay in DIO-NASH mice; conditions: 50 mg/kg, p.o., b.i.d., end of treatment, vs DIO-NASH vehicle
Protocol: The assay was carried out to evaluate the effect of the compounds of the invention on liver toxicity for animals with non-alcoholic fat liver disease (DIO-NASH mice). For this assay, the effect of compound 4a in plasma Alanine Aminotransferase (ALT) and in plasma Aspartate Aminotransferase (AST) was evaluated. DIO-NASH mice (C57Bl/6J male mice) were treated with a hydrochloride salt of compound 4a during 8 weeks (50 mg/kg, p.o., b.i.d.), versus a pathological control of DIO-NASH mice and a non-pathological control LEAN-CHOW mice, both treated with the vehicle (0.9% NaCl). The animals were kept under the same conditions were used as in example 2.2. The DIO-NASH mice group were put on high fat diet (40% AMLN diet, D09100301 Research Diets, USA) and a control group (LEAN-CHOW) was put on a regular chow diet (Altromin 1324, Brogaarden, Denmark) for 35 weeks prior to the study.
To evaluate Alanine transaminase (ALT) and Aspartate transaminase (AST), blood samples were collected in heparinized tubes and plasma was separated and stored at −80° C. until analysis. ALT and AST were measured using commercial kits (Roche Diagnostics, Germany) on the Cobas™ C-501 autoanalyzer according to the manufacturer's instructions.

[3] = tested on: DIO-NASH mice (C57Bl/6J male mice); test: NAFLD activity score (NAS) of liver biopsies pre and post study in DIO-NASH mice; conditions: 50 mg/kg, p.o., b.i.d., 8 weeks, score range 0-8
Protocol: Non-alcoholic fat liver disease (NAFLD) activity score or NAS was evaluated by measurements of steatosis, lobular inflammation, ballooning degeneration and […] of the liver.
Total NAS score represents the sum of scores for steatosis, inflammation, and ballooning, and ranges from 0-8 as follows:
The % of steatosis degree refers to the amount of surface area of the sample involved by steatosis as evaluated on low to medium power examination.
The value given to measure inflammation corresponds to the number of inflammatory foci per field using a 200× magnification. A focus is defined as a cluster, not a row, of >3 inflammatory cells. Acidophil bodies are not included in the inflammatory assessment.
The ballooning degeneration value is measured by the amount of balloon cells, corresponding to degenerated hepatocytes with cleared cytoplasm, enlargement, swelling, rounding and reticulated cytoplasm. […]
Liver samples were fixed in formalin, paraffin embedded, and sections were stained with hematoxylin and eosin (H&E) and Sirius Red. Samples are scored for NAS and fibrosis using of the clinical criteria outlined by Kleiner et al. 2005. […]

COc1ccc(-c2nc(C(=O)NCCN)cc3c2[nH]c2ccccc23)cc1 [Compound 4a, N(-ethylamine)-1-benzosubstituted-β-carboline-3-carboxamide] was tested, and the liver cholesterol levels [1] was “reduced liver cholesterol levels”, the liver triglyceride levels [1] was “reduced liver triglyceride levels” and the “plasma ALT” value [2] was “reduced the plasma ALT levels”. For the same compound, the “plasma AST” value [2] was “reduced the plasma AST levels” and the “NAS score change of the liver biopsy pre and post study” value [3] was “generally reduced the NAS score”.
